Measured values: patent publication US20220273926A1, “DRUG DELIVERY USING MICRONEEDLE ARRAYS” (BOARD OF REGENTS OF THE UNIVERSITY OF NEBRASKA, priority 2019, published 2022)
Entries after “also recorded” stand apart in the source; their conditions may differ. Read-outs that look alike come from different tables or passages of the source.

Columns and labels:
[1] = Drug adsorption to the bandage: solution perfused through the MNAs; assay type: physicochemical; details: perfusion through bandage and MNAs; BSA 54 ng/mL, cefazolin 16 μg/mL
Procedure: Once the system was characterized, the efficiency of the bandage in drug delivery was evaluated. Initially, the potential drug adsorption to the engineered bandage was to be tested. […] The solution was then collected at different time points after perfusion through the MNAs and the concentration of the drugs determined using a total protein assay (for BSA) and UV-Vis spectrophotometry (for cefazolin).
Drug Delivery Characterization: The potential protein and drug adsorption by the bandage, tubing, and MNAs were investigated by perfusing a solution with known concentrations of cefazolin salt and BSA. 150 μL of the delivered solution was collected at different time points and the concentrations of cefazolin and BSA were determined by measuring the solution absorbance for cefazolin and BCA protein assay kit for BSA.

[2] = after 180 min, target 20 μg/mL
Source text: The intradermal drug delivery kinetics were further evaluated by developing an in vitro model mimicking the structure of wounds in which eschar and granulation tissue separates the endothelial cells from the outside environment. This model, illustrated schematically in FIG. 2a, consisted of a cell culture insert with a porous membrane covered by agarose (3% w/v) with ˜2 mm thickness, and the bottom well represented the environment of endothelial cells.
Assessment of release kinetics: To mimic the chronic wound tissue, 12-well cell culture inserts were filled with 150 μL of 3% (w/v) agarose. […] Inserts were divided into 3 groups (4 replicate/group) with respect to the method of delivery, including topical, MNA, and LJI. To measure the concentration of the delivered solution, at each time point 100 μL was removed and then replaced with the same volume of fresh PBS. After collecting all samples, the concentration was measured by a plate reader (Cytation 5, BioTek) followed by data analysis to extract the related release graphs. In the case of BSA, measurement process was followed based on manufacturer's protocol.

[3] = Cefazolin release from thermo-responsive alginate/PNIPAM patch with heater; assay type: physicochemical; details: PNIPAM carriers in alginate patch, heat applied; over 1 h
Source text: To minimize the thermal contact resistance between the microheater and the hydrogel layer, the hydrogel was directly cast on top of the heater. Chronic wounds are known for their high rate of exudate generation and thus exudate management is important in the proper function of the sensors and drug delivery modules. The utilized alginate-based hydrogels are known for high water uptake and swelling ratios and have been used in engineering wet wound dressings. In addition, since the sensors are in direct contact with the skin, the swelling of the hydrogels is not expected to affect the readout. To visualize the drug release, rhodamine B was loaded into PNIPAM particles and the system was heated while being monitored under a microscope. […] After applying heat to the alginate patch, the cefazolin release profile was measured over time. […] To assess the possibility of releasing drugs in a dynamic fashion, heat was applied periodically (30 min on, 30 min off) and the drug release amount was determined. […]
Drug Release with Integrated Heaters: Alginate hydrogel with embedded drug microcarriers was attached on the surface of the microheater while 200 μL PBS was added into the plate and electrical voltage was applied to generate heat. The drug released into the solution was evaluated using plate reader.

keratinocytes = assay: Scratch test assay on keratinocytes contaminated with S. aureus; assay type: cell-based, human; details: keratinocyte monolayer contaminated with S. aureus
Procedure: A standard scratch test assay was used to evaluate the cell migration in presence of bacteria. […] To perform this experiment, the scratch was created over a monolayer of the confluent keratinocytes, which were contaminated with S. aureus in advance. Three groups were used for this set of experiments: (1) cefazolin powder as a positive control, (2) alginate without antibiotic loading as a negative control, and (3) alginate containing cefazolin.
Keratinocytes (1×10^5) were seeded and cultured in a six-well plate and kept overnight to make a confluent monolayer overnight. The 1 mm wide gap scratch was then created onto the monolayer with a 200 μL pipette tip, and floating cells were removed by twice washing with PBS. After the line scratches, 2 mL of DMEM was added for each group. To detect the efficacy of treatments on cell migration, samples were continually imaged for 0, 8, 24, and 48 h. Images of the monolayer were taken by a microscope and cell migration activity was evaluated as the migration distance from the edges of the scratch toward the center of it using Image J software (NIH, Bethesda, Md., USA). For each well, ten images were taken and selected randomly. Experiments were done independently in triplicate.

## Cc1nnc(SCC2=C(C(=O)O)N3C(=O)[C@@H](NC(=O)Cn4cnnn4)[C@H]3SC2)s1 [cefazolin]
[1]
  temporal changes in the drug concentration within the perfused solution: not statistically significant; also recorded: insignificant change in concentration
[2]; LJI
  delivered into the bottom chamber (overall efficiency of delivery): more than 90%
[2]; MNAs
  delivered into the bottom chamber (overall efficiency of delivery): ~65%
[2]; topical (TOP)
  delivered into the bottom chamber (overall efficiency of delivery): ~25%
[3]
  drug released: about 80%
keratinocytes
  cell migration in scratch assay: rapid migration toward the opening area was observed
